According to patent US20250002555A1, “METHODS FOR THERAPY AND REHABILITATION OF MOVEMENT DISORDERS” (City University of Hong Kong, priority 2023, published 2025):
Several values for one entry are separate records, joined by “and”; a condition that tells them apart may be missing. Equal entries are not always repeated.

What was measured:
[1] = test system: motor cortex brain slices from the CCK^−/− mice; assay: Brain slice electrophysiology, fEPSP/LTP after HFS in motor cortex slices; type: cell-based; conditions: CCK4 500 nM, % of baseline
Method: The slice electrophysiology experiment is carried out following the methods reported previously^9. In the experiments, 6-8 weeks old C57BL/6 or CCK^−/− mice are anesthetized with isoflurane in a small chamber. The mouse head is cut, and the brain is rapidly removed and put into an oxygenated (95% O2-5% CO2) artificial cerebral spinal fluid (ACSF) cold bath containing 26 mM of NaHCO3, 2 mM of CaCl2), 1.25 mM of KH2PO4, 1.25 mM of MgSO4, 124 mM of NaCl, 3 mM of KCl and 10 mM of glucose, pH 7.35-7.45. The brain is sectioned from the middle line into two hemispheres. The portions with the brain areas of the motor cortex are trimmed and glued on the ice-cold stage of a vibrating tissue slicer (VT1000S, Leica, https://www.gmi-inc.com/product/leica-vt1000s-microtome, Germany). Coronal sections of slices containing the motor cortex (300 μm thick) are trimmed and gently transferred into an ACSF containing chamber, which is put in a water bath at 28° C. and oxygen blowing continuously. […]
After recovery, the motor cortex slice is covered by the recording electrodes. […] The electrophysiological data are extracted and analyzed with offline software, Mobius software. For quantification of the LTP data, the initial amplitudes of fEPSPs are normalized and expressed as percentage changes over the averaged baseline activity. […]

CCK^−/− mice = assay: Rescue of motor learning ability of CCK^−/− mice with CCK4, single pellet reaching task; type: in vivo; conditions: for success rate: CCK4 0.45 mg/kg i.p. every day before training; for miss rate: CCK4 0.45 mg/kg i.p.
Text: (§1) The task has two periods, shaping and training. […] Only attempts by the dominant hand are counted.
CCK4, a tetrapeptide derived from the peptide of CCK is selected as a potential drug to rescue the motor learning defect caused by the lack of CCK, because CCK4 remains the function to activate the CCK receptor but has a much smaller molecule than CCK8s or CCK58, making it transmit through the brain-blood barrier easily and smoothly^10-11. Therefore, intraperitoneal injection of the CCK4 is a simple and easily available way to rescue CCK lack caused motor learning defects. After shaping, CCK^−/− mice are injected intraperitoneally with CCK4 (0.45 mg/kg, Cat #ab141328, Abcam, https://securedrtest.abcam.com, UK) or vehicle before training every day.

[2] = molecular target: T1, CCKBRs in the motor cortex (Mus musculus, UniProt P56481); assay: Single pellet reaching task with CCKBR antagonist injected into the motor cortex; type: in vivo, C57BL/6 mice; conditions: for success rate: 1 μl 20 μM into motor cortex via cannula before training
T1 construct: from tissue; host or cells: motor cortex of living C57BL/6 mice
T1 sequence (P56481 1-453): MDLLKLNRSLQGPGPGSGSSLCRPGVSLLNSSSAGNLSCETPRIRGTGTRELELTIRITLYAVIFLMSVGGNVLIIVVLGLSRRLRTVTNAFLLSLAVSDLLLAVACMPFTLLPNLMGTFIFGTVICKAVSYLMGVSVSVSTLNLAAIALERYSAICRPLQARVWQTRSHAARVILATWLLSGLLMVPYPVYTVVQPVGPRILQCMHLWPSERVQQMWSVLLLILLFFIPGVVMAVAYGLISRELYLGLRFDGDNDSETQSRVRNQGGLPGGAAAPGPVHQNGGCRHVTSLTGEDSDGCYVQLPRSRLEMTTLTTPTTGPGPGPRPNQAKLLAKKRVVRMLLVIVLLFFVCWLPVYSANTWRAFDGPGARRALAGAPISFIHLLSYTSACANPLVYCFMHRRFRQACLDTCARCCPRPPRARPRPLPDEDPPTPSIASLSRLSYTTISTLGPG
Method: as §1
C57BL/6 mice are implanted a cannula in the motor cortex (coordinates: AP, 1.4 mm, ML, −/+1.6 mm, DV, 0.2 mm) contralateral to the dominant hand of the mice, followed by three days of recovery. Mice are grouped into antagonist and vehicle groups. L365,260 (CCKBR antagonist) (1 μl, 20 μM, Cat #2767, Bio-Techne, https://www.bio-techne.com/, USA) or vehicle (0.1% DMSO dissolved in ACSF) is injected into the motor cortex through the cannula with the flow rate of 100 nl/min pumped by a syringe pump (Hamilton, http://hamiltoninstrument.com, USA), before the mice are placed into the chamber for the single pellet reaching task training.

[3] = test system: neurons in the motor cortex layer 2/3; assay: Calcium imaging of layer 2/3 of the motor cortex during single pellet reaching task training; type: in vivo, C57BL/6 mice; conditions: for activated population activity (peak activity minus baseline activity): C57BL/6 mice injected with L365,260 (0.4 mg/kg i.p.); for pairwise Hausdorff distance of trajectories / trial-to-trial population activity correlation (Pearson correlation coefficient): C57BL/6 mice injected with L365,260
Method: as §1
The surface virus infusion process for the calcium imaging is performed as described previously with mild modification^5. A wide-tip glass pipette is prepared by a micropipette puller and then cut, polished, and flame-treated to make it even and smooth. Mice are […] injected with dexamethasone (0.2 mg/kg, s.c.) and carprofen (5 mg/kg, s.c.) to protect the brain from swelling and inflammation. Three hours later, mice are anesthetized with pentobarbital. The periosteum covered on the skull is removed, cleaned, and dried with 100% alcohol to prevent the skull and tissues from growing. A 3×3 mm^2 window above the motor cortex contralateral to the dominant hand is opened with a hand drill, and the bone debris is carefully removed with fine forceps. After that, the dura around the injection area is removed (open a dura hole of about 1 mm^2) to expose the pial tissue for virus infusion. The tip of the pipette tightly covered the brain surface by lowering 400-500 μm, and 0.6 μl virus is infused at the speed of 0.06 μl/min. A 3×3 cover glass (thickness, around 150 μm) is attached to the brain surface, and gentle pressure is applied to keep the cover glass at the level same as the skull. The edge of the cover glass is sealed with superglue. After the glue is totally hardened, the skin is stretched back and sutured.
2-3 weeks after cranial window implantation, the scalp over the skull is totally removed with surgical scissors. […] The cover glass surface is gently cleaned with Ringer's solution and lens paper, and the regrowth of periosteum on the skull is removed with fine forceps. Before baseplate implantation, the skull is dried with 100% alcohol, covered with Metbondglue, and a thick layer of dental acrylic except for the cover glass for observation.
The LED is turned on and the focal distance of the electrowetting lens is adjusted to 0 on the software. The position of the miniscope is adjusted until the brain tissue is observed in the data acquisition system. Dental acrylic is used to fix the baseplate to the acrylic cap covering the skull around the window. Once the dental acrylic has hardened, the miniscope is removed, and a metal cap is attached to the baseplate to protect the cover glass window.
After the implantation of the baseplate, a miniscope model is attached to the baseplate, and the mouse is placed in the chamber to acclimate to the weight of the miniscope for 20 minutes for 3 days. The LED laser and focal plate are slightly adjusted until the cells with fluorescent protruded from the background. A web camera is also connected to the data acquisition software and recorded the behavior movement of the animal simultaneously. An imaging field of about 1.0×1.0 mm^2 (resolution: 608×608 pixels) video at approximately 10 min long is recorded. To clearly figure out the role of CCK played in the neuronal plasticity of the motor cortex from CCK^−/− mice, C57BL/6 mice as well as C57BL/6 mice that intraperitoneal injection of CCKBR antagonist, L365,260 (0.4 mg/kg, Cat #2767, Bio-Techne, https://www.bio-techne.com, USA). Raw AVI videos are firstly spatially down-sample by two folds to reduce the size of the videos by Fiji (Image J, https://imagej.net/imagej-wiki-static/Fiji/Downloads, USA). Then a MATLAB algorithm, NoRMCorre, is applied for piecewise rigid motion correction before data analysis. The calcium signals are extracted with the MATLAB code of Constrained Nonnegative Matrix Factorization for microEndoscopic (CNMF-E) (code availability: https://github.com/zhoupc/CNMF_E) 6. The scaled fluorescent calcium signal overtime is extracted as C_raw. The raw data is then deconvolved. […] Timestamps from both the behavior videos and the calcium imaging videos are aligned to find out the time window when the mouse perform the reaching task. […]

For Trp-Met-Asp-Phe-NH2 [CCK4], the “average normalized fEPSP amplitude” value ([1]; after HFS (50-60 min)) was 118.89%±6.09%, the “average normalized fEPSP amplitude” value ([1]; before HFS (−10-0 min)) was 100.28%±0.47% and the success rate (CCK^−/− mice; Day 1) was 19.17%±3.03%. The success rate (CCK^−/− mice; Day 5, 0.45 mg/kg) was 30.58%±4.18% and 30.51%±4.18%, the success rate (CCK^−/− mice; Day 6) was 31.50%±4.43% and the miss rate (CCK^−/− mice; Day 1) was 25.47%±4.03%. The miss rate (CCK^−/− mice; Day 5) was 13.13%±2.80 and the brain-blood barrier passage (CCK^−/− mice; concluded from behavioural rescue after i.p. injection) was “could cross the brain-blood barrier”.

For `Cc1cccc(NC(=O)N[C@@H]2N=C(c3ccccc3)c3ccccc3N(C)C2=O)c1` [L365,260], the success rate ([2]; Day 3) was 16.80±2.83%, the success rate ([2]; Day 4) was 18.16±3.12% and the “success rate of pellet retrieval, change through the 6-day training period” value ([2]; infused into motor cortex every day before training) was “not improved”. For the same molecule, the “drop rate, change Day 1 vs. Day 5” value ([2]; motor cortex injection) was “no significant changes”, the miss rate ([2]; motor cortex injection, Day 1) was 27.34%±9.85% and the “number of miss, change with learning” value ([2]; motor cortex injection, Day 1 vs. Day 5) was “no significant decrease”. The miss rate ([2]; motor cortex injection, Day 5) was 24.75%±2.34%, the no-grasp rate ([2]; motor cortex injection, Day 5) was 34.69%±4.12% and the “activated population activity (peak activity minus baseline activity)” value ([3]; Day 1) was 0.0218±0.0094. The “activated population activity (peak activity minus baseline activity)” value ([3]; Day 6) was 0.0354±0.0080, the “pairwise Hausdorff distance of trajectories” value ([3]; Day 1) was 0.7012±0.0594 cm and the “trial-to-trial population activity correlation (Pearson correlation coefficient)” value ([3]; Day 1) was 0.12±0.07. For the same molecule, the “pairwise Hausdorff distance of trajectories” value ([3]; Day 6) was 0.6712±0.0659 cm and the “trial-to-trial population activity correlation (Pearson correlation coefficient)” value ([3]; Day 6) was 0.12±0.05.
